# Measured values: PubChem BioAssay AID248 (DTP/NCI, 2004)
# Values joined by “and” are separate entries in the source; they are usually repeats but may differ in a detail not shown here. Equal entries are not always repeated. Toxic doses and inconclusive results are not listed.
# System: L1210 leukemia ip in BDF1 mice, survival T/C
# Assay: NCI In Vivo Anticancer Drug Screen. Data for tumor model L1210 Leukemia (intraperitoneal) in B6D2F1 (BDF1) mice
# Conditions: endpoint: mean survival time, higher = longer survival
# Outline: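 Tumor cells were implanted, animals were treated, and survival was followed. The result divides the treated measurement by the vehicle-control measurement.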
smiles,measurement,setting,value
O=C(Nc1ccc(C2=NCCN2)cc1)c1ccc(C(=O)Nc2ccc(C3=NCCN3)cc2)c(Cl)c1,T/C,"dose: 1.8 mg/kg/injection, schedule: Q01DX009 (ip), vehicle: Klucel (hydroxypropylcellulose) (HPC)",100 % of control and 105 % of control
same,T/C,"dose: 2.0 mg/kg/injection, schedule: Q01DX010 (ip), vehicle: other",94 % of control and 101 % of control
same,T/C,"dose: 2.0 mg/kg/injection, schedule: Q01DX Z (ip), vehicle: saline",103 % of control
same,T/C,"dose: 2.0 mg/kg/injection, schedule: Q01DX Z (sc), vehicle: carboxymethylcellulose (CMC)",110 % of control
same,T/C,"dose: 2.5 mg/kg/injection, schedule: Q04DX002 (ip), vehicle: Klucel (hydroxypropylcellulose) (HPC)",95 % of control
same,T/C,"dose: 3.0 mg/kg/injection, schedule: Q03DX Z (ip), vehicle: saline",114 % of control
same,T/C,"dose: 3.5 mg/kg/injection, schedule: Q01DX009 (ip), vehicle: Klucel (hydroxypropylcellulose) (HPC)",107 % of control and 115 % of control
same,T/C,"dose: 4.0 mg/kg/injection, schedule: Q01DX010 (ip), vehicle: other",107 % of control and 117 % of control
same,T/C,"dose: 4.0 mg/kg/injection, schedule: Q01DX Z (sc), vehicle: carboxymethylcellulose (CMC)",110 % of control
same,T/C,"dose: 5.0 mg/kg/injection, schedule: Q04DX002 (ip), vehicle: Klucel (hydroxypropylcellulose) (HPC)",95 % of control
same,T/C,"dose: 6.0 mg/kg/injection, schedule: Q03DX Z (ip), vehicle: saline",118 % of control
same,T/C,"dose: 6.7 mg/kg/injection, schedule: Q01DX010 (ip), vehicle: other",124 % of control
same,T/C,"dose: 6.7 mg/kg/injection, schedule: Q01DX015 (ip), vehicle: carboxymethylcellulose (CMC)",116 % of control
same,T/C,"dose: 7.8 mg/kg/injection, schedule: Q02DX010 (ip), vehicle: carboxymethylcellulose (CMC)",117 % of control
same,T/C,"dose: 8.0 mg/kg/injection, schedule: Q01DX Z (ip), vehicle: saline",188 % of control
same,T/C,"dose: 10.0 mg/kg/injection, schedule: Q01DX015 (ip), vehicle: carboxymethylcellulose (CMC)",119 % of control
same,T/C,"dose: 11.0 mg/kg/injection, schedule: Q02DX010 (ip), vehicle: carboxymethylcellulose (CMC)",181 % of control
same,T/C,"dose: 12.5 mg/kg/injection, schedule: Q02DX004 (im), vehicle: olive oil, sesame oil, peanut oil",116 % of control and 119 % of control
same,T/C,"dose: 13.0 mg/kg/injection, schedule: Q## X004 (ip), vehicle: carboxymethylcellulose (CMC)",105 % of control and 106 % of control
same,T/C,"dose: 15.0 mg/kg/injection, schedule: Q01DX010 (ip), vehicle: other",166 % of control
same,T/C,"dose: 15.0 mg/kg/injection, schedule: Q01DX015 (ip), vehicle: carboxymethylcellulose (CMC)",169 % of control and 171 % of control
same,T/C,"dose: 16.0 mg/kg/injection, schedule: Q01DX010 (ip), vehicle: water",156 % of control
same,T/C,"dose: 16.0 mg/kg/injection, schedule: Q01DX Z (ip), vehicle: saline",173 % of control
same,T/C,"dose: 17.4 mg/kg/injection, schedule: Q02DX008 (ip), vehicle: carboxymethylcellulose (CMC)",121 % of control
same,T/C,"dose: 20.0 mg/kg/injection, schedule: Q01DX001 (ip), vehicle: saline",114 % of control
same,T/C,"dose: 20.0 mg/kg/injection, schedule: Q## X004 (ip), vehicle: carboxymethylcellulose (CMC)",103 % of control and 114 % of control
same,T/C,"dose: 22.5 mg/kg/injection, schedule: Q01DX010 (ip), vehicle: other",178 % of control
same,T/C,"dose: 24.0 mg/kg/injection, schedule: Q02DX010 (ip), vehicle: carboxymethylcellulose (CMC)",168 % of control
same,T/C,"dose: 25.0 mg/kg/injection, schedule: Q01DX001 (im), vehicle: steriod suspending solution",103 % of control
same,T/C,"dose: 26.0 mg/kg/injection, schedule: Q02DX008 (ip), vehicle: carboxymethylcellulose (CMC)",168 % of control
same,T/C,"dose: 26.0 mg/kg/injection, schedule: Q02DX010 (ip), vehicle: carboxymethylcellulose (CMC)",169 % of control and 182 % of control
same,T/C,"dose: 28.0 mg/kg/injection, schedule: Q07DX Z (ip), vehicle: saline",121 % of control
same,T/C,"dose: 29.0 mg/kg/injection, schedule: Q01DX001 (ip), vehicle: carboxymethylcellulose (CMC)",122 % of control
same,T/C,"dose: 29.0 mg/kg/injection, schedule: Q01DX001 (ip), vehicle: other",109 % of control
same,T/C,"dose: 30.0 mg/kg/injection, schedule: Q01DX001 (ip), vehicle: carboxymethylcellulose (CMC)",116 % of control and 118 % of control
same,T/C,"dose: 30.0 mg/kg/injection, schedule: Q## X004 (ip), vehicle: carboxymethylcellulose (CMC)",113 % of control and 115 % of control
same,T/C,"dose: 32.0 mg/kg/injection, schedule: Q01DX Z (sc), vehicle: carboxymethylcellulose (CMC)",185 % of control
same,T/C,"dose: 33.7 mg/kg/injection, schedule: Q01DX010 (ip), vehicle: other",167 % of control
same,T/C,"dose: 39.0 mg/kg/injection, schedule: Q01DX015 (ip), vehicle: carboxymethylcellulose (CMC)",119 % of control
same,T/C,"dose: 39.0 mg/kg/injection, schedule: Q02DX008 (ip), vehicle: carboxymethylcellulose (CMC)",184 % of control and 192 % of control
same,T/C,"dose: 39.0 mg/kg/injection, schedule: Q02DX010 (ip), vehicle: other",167 % of control
same,T/C,"dose: 40.0 mg/kg/injection, schedule: Q01DX001 (ip), vehicle: saline",106 % of control
same,T/C,"dose: 42.0 mg/kg/injection, schedule: Q01DX001 (ip), vehicle: carboxymethylcellulose (CMC)",122 % of control
same,T/C,"dose: 42.0 mg/kg/injection, schedule: Q01DX001 (ip), vehicle: other",117 % of control
same,T/C,"dose: 44.0 mg/kg/injection, schedule: Q01DX001 (ip), vehicle: carboxymethylcellulose (CMC)",113 % of control
same,T/C,"dose: 48.0 mg/kg/injection, schedule: Q01DX001 (ip), vehicle: carboxymethylcellulose (CMC)",113 % of control
same,T/C,"dose: 48.0 mg/kg/injection, schedule: Q01DX010 (ip), vehicle: water",157 % of control
same,T/C,"dose: 48.4 mg/kg/injection, schedule: Q01DX001 (ip), vehicle: carboxymethylcellulose (CMC)",104 % of control
same,T/C,"dose: 50.0 mg/kg/injection, schedule: Q01DX010 (sc), vehicle: olive oil, sesame oil, peanut oil",123 % of control
same,T/C,"dose: 50.0 mg/kg/injection, schedule: Q01DX015 (ip), vehicle: carboxymethylcellulose (CMC)",100 % of control and 124 % of control
same,T/C,"dose: 50.0 mg/kg/injection, schedule: Q02DX004 (im), vehicle: olive oil, sesame oil, peanut oil",156 % of control
same,T/C,"dose: 53.6 mg/kg/injection, schedule: Q## X032 (ip), vehicle: carboxymethylcellulose (CMC)",162 % of control
same,T/C,"dose: 54.0 mg/kg/injection, schedule: Q02DX010 (ip), vehicle: carboxymethylcellulose (CMC)",181 % of control
same,T/C,"dose: 54.0 mg/kg/injection, schedule: Q02DX010 (ip), vehicle: other",157 % of control
same,T/C,"dose: 54.0 mg/kg/injection, schedule: Q## X032 (ip), vehicle: carboxymethylcellulose (CMC)",153 % of control
same,T/C,"dose: 56.0 mg/kg/injection, schedule: Q01DX009 (ip), vehicle: Klucel (hydroxypropylcellulose) (HPC)",93 % of control
same,T/C,"dose: 56.0 mg/kg/injection, schedule: Q07DX Z (ip), vehicle: saline",123 % of control
same,T/C,"dose: 58.5 mg/kg/injection, schedule: Q02DX008 (ip), vehicle: carboxymethylcellulose (CMC)",166 % of control
same,T/C,"dose: 58.7 mg/kg/injection, schedule: Q02DX010 (ip), vehicle: carboxymethylcellulose (CMC)",162 % of control
same,T/C,"dose: 62.5 mg/kg/injection, schedule: Q01DX010 (oral), vehicle: other",113 % of control
same,T/C,"dose: 67.0 mg/kg/injection, schedule: Q## X004 (ip), vehicle: carboxymethylcellulose (CMC)",157 % of control and 161 % of control
same,T/C,"dose: 74.0 mg/kg/injection, schedule: Q01DX001 (ip), vehicle: carboxymethylcellulose (CMC)",120 % of control
same,T/C,"dose: 80.0 mg/kg/injection, schedule: Q01DX001 (ip), vehicle: saline",119 % of control
same,T/C,"dose: 80.0 mg/kg/injection, schedule: Q## X032 (ip), vehicle: carboxymethylcellulose (CMC)",163 % of control and 178 % of control and 188 % of control
same,T/C,"dose: 81.0 mg/kg/injection, schedule: Q02DX010 (ip), vehicle: carboxymethylcellulose (CMC)",106 % of control
same,T/C,"dose: 96.0 mg/kg/injection, schedule: Q01DX001 (ip), vehicle: carboxymethylcellulose (CMC)",156 % of control
same,T/C,"dose: 96.0 mg/kg/injection, schedule: Q01DX001 (ip), vehicle: other",162 % of control
same,T/C,"dose: 100.0 mg/kg/injection, schedule: Q01DX010 (sc), vehicle: olive oil, sesame oil, peanut oil",93 % of control
same,T/C,"dose: 112.0 mg/kg/injection, schedule: Q07DX Z (ip), vehicle: saline",121 % of control
same,T/C,"dose: 120.0 mg/kg/injection, schedule: Q## X032 (ip), vehicle: carboxymethylcellulose (CMC)",180 % of control and 181 % of control
same,T/C,"dose: 125.0 mg/kg/injection, schedule: Q01DX010 (oral), vehicle: other",107 % of control
same,T/C,"dose: 180.0 mg/kg/injection, schedule: Q## X032 (ip), vehicle: carboxymethylcellulose (CMC)",94 % of control
same,T/C,"dose: 250.0 mg/kg/injection, schedule: Q01DX010 (oral), vehicle: other",111 % of control
Nc1cc(=O)[nH]c(O)c1C(=O)O,T/C,"dose: 100.0 mg/kg/injection, schedule: Q04DX003 (ip), vehicle: saline with Tween-80",98 % of control and 90 % of control
same,T/C,"dose: 200.0 mg/kg/injection, schedule: Q04DX003 (ip), vehicle: saline with Tween-80",97 % of control
same,T/C,"dose: 400.0 mg/kg/injection, schedule: Q04DX003 (ip), vehicle: saline with Tween-80",94 % of control
CC12C(c3ccccc3)=C(c3ccccc3)C(C)(C3C(=O)OC(=O)C31)C1C(=O)OC(=O)C12 (centres undefined),T/C,"dose: 100.0 mg/kg/injection, schedule: Q01DX001 (ip), vehicle: Klucel (hydroxypropylcellulose) (HPC)",88 % of control
same,T/C,"dose: 200.0 mg/kg/injection, schedule: Q01DX001 (ip), vehicle: Klucel (hydroxypropylcellulose) (HPC)",100 % of control
same,T/C,"dose: 400.0 mg/kg/injection, schedule: Q01DX001 (ip), vehicle: Klucel (hydroxypropylcellulose) (HPC)",100 % of control
